In US20170135378A1, “COMPOSITION AND USE THEREOF” (DUPONT NUTRITION BIOSCIENCES APS, priority 2014, published 2017):

Columns and labels:
[1] = Release testing of betaine leaching from shrimp feed pellets in artificial seawater; type: physicochemical
Method: An aquafeed comprising the composition of the invention (or the composition itself) is placed in a rotating basket and immersed in 500 ml of artificial seawater (547.6 mM NaCl, 56.8 mM MgSO4.7H2O, 2.4 mM NaHCO3, adjusted to pH 8,2 with 1M NaOH), and held at 30° C. Aliquots of sample are withdrawn at selected time-points (1, 3, 5, 10, 15, 30, 45, 60 and 90 minutes). The volume of dissolution media is held constant through the re-addition of aliquots (30° C.) of fresh media to compensate. The aliquots are analysed by a suitable analytical technique (e.g. HPLC) in order to determine the concentration of the hydro-soluble component in the dissolution media.
An aquafeed sample (30 g) was placed in a rotating basket and immersed in 500 ml of artificial seawater (pH 8,2), held at 30° C. 5 ml aliquots of sample were withdrawn at selected time-points (1, 3, 5, 10, 15, 30, 45, 60 and 90 minutes). The volume of dissolution media was held constant (500 ml) through the re-addition of 5 ml aliquots of fresh media (30° C.). These samples were filtered on […], frozen and analysed by HPLC in Advanced Analysis.
Release curves (see FIGS. 1 to 3) show the amount of betaine leached as a percentage of weight of available net betaine (% w/w).

[2] = pure form; water and lower alcohols; cited from earlier work

For `C[N+](C)(C)CC(=O)[O-]` [Betafin BT, trimethylglycine], the “proportion of available betaine leached over 90 minutes” value ([1]; pellets with increased betaine content (c. 5 and 10 kg/T, FIGS. 2 and 3), artificial seawater pH 8,2, 30° C., 90 minutes) was at most 40%, the “leach profile of pellets (comparison in words)” value ([1]; shrimp feed pellets c. 2, 5 and 10 kg betaine/T, artificial seawater, 30° C., up to 90 minutes) was “fastest and most extensive leaching” and the “available betaine dissolved after 90 minutes” value ([1]; shrimp feed pellets prepared with c. 2 kg betaine/T, artificial seawater pH 8,2, 30° C., 90 minutes, FIG. 1) was at most 60%. For the same compound, the “solubility (in words)” value [2] was “readily soluble in water and lower alcohols”.
